# Results taken from patent publication US20230027066A1 (Urovant Sciences GmbH, priority 2019, published 2023).
# Tests used:
# [1] = drug interaction study of vibegron and rifampin, pharmacokinetics; format: in vivo, human
# [2] = thorough QT study, single doses of 200 and 400 mg, healthy volunteers; format: in vivo, human
# [3] = Phase 3 study (75 mg), post-void residual urine volume (PVR); format: in vivo, human
# Source text: The risk of acute urinary retention or morbidities related to an increase in Post-Void Residual (PVR) is a concern with antimuscarinic therapy that promotes smooth muscle relaxation by inhibiting acetylcholine-induced smooth muscle contraction. If, during contraction, the bladder cannot generate enough pressure to overcome the outlet resistance in the urethra, either because of poor detrusor contractility or profound obstruction (most commonly from BPH), acute urinary retention or incomplete emptying of the bladder may result.
# The volume of urine that remains in the bladder after voiding (PVR) is an objective measurement that may serve as a proxy for impaired ability to void.
# PVR were performed via ultrasound at the visits indicated in the Schedule of Activities.
# [4] = Phase 2b study, vital sign (HR, SBP, DBP) changes and orthostatic AEs; format: in vivo, human
# Source text: None led to discontinuation. The overall incidence of orthostatic symptoms was low.
# Small differences in the percent of subjects exceeding categorical heart rate and blood pressure thresholds for vibegron were similar to those in the tolterodine arm.
# [5] = Phase 1 program safety (16 Phase 1 studies); format: in vivo; settings: single doses 2 to 600 mg, multiple doses 25 to 400 mg up to 28 days
# Source text: Safety data from 16 Phase 1 studies, which include 15 completed Phase 1 studies and 1 study that was terminated early (this study was terminated for reasons unrelated to efficacy or safety) was collected.
# [6] = dose-Cmax and dose-AUC models / log-log regression from Phase 1 data
# Experimental: In order to contextualize PK parameters of a 75 mg dose, dose-Cmax and dose-AUC models were created using data from Phase 1 studies.
# [7] = test system: males and females with OAB; test: Phase 3 study of vibegron 50 mg and 100 mg, 12 weeks, efficacy; format: in vivo, human
# [8] = target: CYP2D6 (Homo sapiens, UniProt P10635); test: drug interaction study of vibegron and tolterodine (sensitive CYP2D6 substrate); settings: vibegron 100 mg QD at steady state
# [9] = vibegron 75 mg single dose + rifampin 600 mg QD
# [10] = vibegron 75 mg single dose alone
# [11] = Males with medical history of BPH
# [12] = estimated 75 mg vs 200 mg single dose
# [13] = estimated 75 mg vs 400 mg single dose
# Sequence of CYP2D6 (P10635 whole entry): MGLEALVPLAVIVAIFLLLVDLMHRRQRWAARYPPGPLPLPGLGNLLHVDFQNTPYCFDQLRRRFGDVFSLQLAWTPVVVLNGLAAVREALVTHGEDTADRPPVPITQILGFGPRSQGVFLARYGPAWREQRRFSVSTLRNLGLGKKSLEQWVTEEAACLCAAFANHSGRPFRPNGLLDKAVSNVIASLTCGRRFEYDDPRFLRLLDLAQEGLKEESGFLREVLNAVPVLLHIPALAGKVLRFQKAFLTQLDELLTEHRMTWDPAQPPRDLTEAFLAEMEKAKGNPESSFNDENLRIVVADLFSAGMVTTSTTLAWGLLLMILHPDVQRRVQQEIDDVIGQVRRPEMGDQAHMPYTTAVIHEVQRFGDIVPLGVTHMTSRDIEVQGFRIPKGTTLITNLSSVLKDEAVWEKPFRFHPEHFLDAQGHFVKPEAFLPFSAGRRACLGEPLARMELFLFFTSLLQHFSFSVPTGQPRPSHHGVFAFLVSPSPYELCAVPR
compound,measurement,setting,value
"O=C(Nc1ccc(C[C@@H]2CC[C@H]([C@H](O)c3ccccc3)N2)cc1)[C@@H]1CCc2nccc(=O)n21 [Vibegron, (6S)-N-[4-[[(2S,5R)−5-[(R)-hydroxy(phenyl)methyl]pyrrolidin−2-yl]methyl]phenyl]−4-oxo−7,8-dihydro−6H-pyrrolo[1,2-a]pyrimidine−6-carboxamide]",AUC(0-t),"[1]; both sexes, human, in vivo, 75 mg, read-out: AUC0-t, geometric mean (% CV)",1160 ng·h/mL
same,Cmax,"[1]; both sexes, human, in vivo, 75 mg, read-out: Cmax, geometric mean (% CV)",82.3 ng/mL
same,AUC(0-inf),"[1]; both sexes, human, in vivo, oral, 75 mg, read-out: AUC0-∞, geometric mean (% CV)",1310 ng·h/mL
same,half-life,"[1]; both sexes, human, in vivo, oral, 75 mg, read-out: t1/2, geometric mean (% CV) (converted)",3.5 days
same,"CL/F, geometric mean (% CV)",[1]; [9],57.3 (30.1) L/hr
same,"V/F, geometric mean (% CV)",[1]; [9],6140 (47.0) L
same,"CL/F, geometric mean (% CV)",[1]; [10],57.2 (39.7) L/hr
same,"V/F, geometric mean (% CV)",[1]; [10],6930 (48.6) L
same,effect on QTc or blood pressure in thorough QT study,"[2]; human, in vivo",no clinically meaningful effect on QTc or blood pressure
same,"AUC, mean ± SD",[2]; vibegron 200 mg single dose,2430 ± 974 ng·h/mL
same,Maximum mean placebo corrected change from baseline RR interval,[2]; vibegron 200 mg single dose,-84.36 ms
same,Maximum mean placebo corrected change from baseline diastolic BP,[2]; vibegron 200 mg single dose,2.42 mmHg
same,Maximum mean placebo corrected change from baseline systolic BP,[2]; vibegron 200 mg single dose,2.20 mmHg
same,"AUC, mean ± SD",[2]; vibegron 400 mg single dose,6800 ± 2300 ng·h/mL
same,Maximum mean placebo corrected change from baseline RR interval,[2]; vibegron 400 mg single dose,-162.45 ms
same,Maximum mean placebo corrected change from baseline diastolic BP,[2]; vibegron 400 mg single dose,3.99 mmHg
same,Maximum mean placebo corrected change from baseline systolic BP,[2]; vibegron 400 mg single dose,3.97 mmHg
same,"PVR category at Week 12 <100 mL, patients",[3]; Females,96.8%
same,"PVR category at Week 12 ≥100 mL to <200 mL, patients",[3]; Females,3.0%
same,"PVR category at Week 12 ≥200 mL to <350 mL, patients",[3]; Females,0.2%
same,"PVR category at Week 12 ≥350 mL, patients",[3]; Females,0
same,"PVR, Mean Change from Baseline at Week 12 (SD)",[3]; Females,0.1 (36.19) mL
same,"PVR category at Week 12 <100 mL, patients",[3]; Males,89.7%
same,"PVR category at Week 12 ≥100 mL to <200 mL, patients",[3]; Males,7.7%
same,"PVR category at Week 12 ≥200 mL to <350 mL, patients",[3]; Males,2.6%
same,"PVR category at Week 12 ≥350 mL, patients",[3]; Males,0
same,"PVR, Mean Change from Baseline at Week 12 (SD)",[3]; Males,2.2 (48.45) mL
same,"PVR category at Week 12 <100 mL, patients",[3]; [11],96.6%
same,"PVR category at Week 12 ≥100 mL to <200 mL, patients",[3]; [11],0%
same,"PVR category at Week 12 ≥200 mL to <350 mL, patients",[3]; [11],3.4%
same,"PVR category at Week 12 ≥350 mL, patients",[3]; [11],0
same,"PVR, Mean Change from Baseline at Week 12 (SD)",[3]; [11],−3.4 (42.45) mL
same,"PVR category at Week 12 <100 mL, patients",[3]; all patients,89.9%
same,"PVR category at Week 12 ≥100 mL to <200 mL, patients",[3]; all patients,3.5%
same,"PVR category at Week 12 ≥200 mL to <350 mL, patients",[3]; all patients,0.6%
same,"PVR category at Week 12 ≥350 mL, patients",[3]; all patients,0
same,"PVR, Mean Change from Baseline at Week 12 (SD)",[3]; all patients,0.4 (38.27) mL
same,"DBP change from baseline, mean (95% CI) maximum, week 1 to 8",[4]; vibegron 3 mg,"5.03 (3.92, 6.15) mm Hg"
same,"DBP change from baseline, mean (95% CI), week 1",[4]; vibegron 3 mg,"−0.37 (−1.69, 0.95) mm Hg"
same,"HR change from baseline, mean (95% CI) maximum, week 1 to 8",[4]; vibegron 3 mg,"5.57 (4.25, 6.90) bpm"
same,"HR change from baseline, mean (95% CI), week 1",[4]; vibegron 3 mg,"0.36 (−0.90, 1.62) bpm"
same,"SBP change from baseline, mean (95% CI) maximum, week 1 to 8",[4]; vibegron 3 mg,"7.14 (5.18, 9.10) mm Hg"
same,"SBP change from baseline, mean (95% CI), week 1",[4]; vibegron 3 mg,"−0.35 (−2.34, 1.65) mm Hg"
same,"DBP change from baseline, mean (95% CI) maximum, week 1 to 8",[4]; vibegron 15 mg,"6.37 (5.20, 7.53) mm Hg"
same,"DBP change from baseline, mean (95% CI), week 1",[4]; vibegron 15 mg,"0.03 (−1.52, 1.59) mm Hg"
same,"HR change from baseline, mean (95% CI) maximum, week 1 to 8",[4]; vibegron 15 mg,"6.56 (5.20, 7.92) bpm"
same,"HR change from baseline, mean (95% CI), week 1",[4]; vibegron 15 mg,"0.35 (−1.15, 1.85) bpm"
same,"SBP change from baseline, mean (95% CI) maximum, week 1 to 8",[4]; vibegron 15 mg,"8.93 (7.18, 10.67) mm Hg"
same,"SBP change from baseline, mean (95% CI), week 1",[4]; vibegron 15 mg,"−0.34 (−2.46, 1.78) mm Hg"
same,subjects with orthostatic related AEs,[4]; vibegron 15 mg,0.3%
same,"DBP change from baseline, mean (95% CI) maximum, week 1 to 8",[4]; vibegron 50 mg,"4.19 (3.10, 5.29) mm Hg"
same,"DBP change from baseline, mean (95% CI), week 1",[4]; vibegron 50 mg,"−0.70 (−2.07, 0.67) mm Hg"
same,"HR change from baseline, mean (95% CI) maximum, week 1 to 8",[4]; vibegron 50 mg,"5.49 (4.28, 6.69) bpm"
same,"HR change from baseline, mean (95% CI), week 1",[4]; vibegron 50 mg,"0.29 (−0.88, 1.46) bpm"
same,"SBP change from baseline, mean (95% CI) maximum, week 1 to 8",[4]; vibegron 50 mg,"7.01 (5.31, 8.70) mm Hg"
same,"SBP change from baseline, mean (95% CI), week 1",[4]; vibegron 50 mg,"−0.79 (−2.65, 1.08) mm Hg"
same,"SBP and DBP, difference between placebo and vibegron in mean changes at Week 1 and mean maximum changes over 8 weeks",[4]; vibegron 50 mg and 100 mg,< 1 mm Hg
same,"DBP change from baseline, mean (95% CI) maximum, week 1 to 8",[4]; vibegron 100 mg,"4.80 (3.88, 5.72) mm Hg"
same,"DBP change from baseline, mean (95% CI), week 1",[4]; vibegron 100 mg,"−0.69 (−1.72, 0.34) mm Hg"
same,"HR change from baseline, mean (95% CI) maximum, week 1 to 8",[4]; vibegron 100 mg,"6.12 (5.10, 7.15) bpm"
same,"HR change from baseline, mean (95% CI), week 1",[4]; vibegron 100 mg,"0.35 (−0.69, 1.38) bpm"
same,"SBP change from baseline, mean (95% CI) maximum, week 1 to 8",[4]; vibegron 100 mg,"6.51 (5.09, 7.93) mm Hg"
same,"SBP change from baseline, mean (95% CI), week 1",[4]; vibegron 100 mg,"−0.77 (−2.22, 0.68) mm Hg"
same,percent of subjects with a change from baseline in DBP >15 mmHg,[4]; vibegron 100 mg,1.3%
same,subjects with orthostatic related AEs,[4]; vibegron 100 mg,1.1%
same,"HR, mean maximum changes over 8 weeks, difference to placebo","[4]; vibegron, all doses",< 2 bpm
same,tolerability across the Phase 1 program,[5],generally well tolerated
same,AUC of 75 mg dose lower than 200 mg single dose,[6]; [12],~2 fold
same,Cmax of 75 mg dose lower than 200 mg single dose,[6]; [12],approximately 3.3 fold
same,AUC of 75 mg dose lower than 400 mg single dose,[6]; [13],~6 fold
same,Cmax of 75 mg dose lower than 400 mg single dose,[6]; [13],~9.2 fold
same,increase in Cmax with increase in dose from 50 to 100 mg,[6]; vibegron 50 vs 100 mg,~3 fold
same,reduction in Cmax with a 25% reduction in dose (100 mg to 75 mg),[6]; vibegron 75 vs 100 mg,~40%
same,Micturitions: LS mean placebo adjusted change from baseline (95% CI) at Week 12,[7]; vibegron 50 mg once daily,"−0.86 (−1.12, −0.60)"
same,Total incontinence episodes: LS mean placebo adjusted change from baseline (95% CI) at Week 12,[7]; vibegron 50 mg once daily,"−0.30 (−0.49, −0.12)"
same,Urge urinary incontinence episodes: LS mean placebo adjusted change from baseline (95% CI) at Week 12,[7]; vibegron 50 mg once daily,"−0.27 (−0.44, −0.10)"
same,Urgency episodes: LS mean placebo adjusted change from baseline (95% CI) at Week 12,[7]; vibegron 50 mg once daily,"−0.51 (−0.76, −0.25)"
same,Micturitions: LS mean placebo adjusted change from baseline (95% CI) at Week 12,[7]; vibegron 100 mg once daily,"−0.81 (−1.07, −0.55)"
same,Total incontinence episodes: LS mean placebo adjusted change from baseline (95% CI) at Week 12,[7]; vibegron 100 mg once daily,"−0.43 (−0.61, −0.24)"
same,Urge urinary incontinence episodes: LS mean placebo adjusted change from baseline (95% CI) at Week 12,[7]; vibegron 100 mg once daily,"−0.39 (−0.55, −0.22)"
same,Urgency episodes: LS mean placebo adjusted change from baseline (95% CI) at Week 12,[7]; vibegron 100 mg once daily,"−0.67 (−0.93, −0.42)"
same,inhibition of CYP2D6 (conclusion from tolterodine interaction study),[8],does not inhibit CYP2D6
